Columns and labels:
CCRF-CEM [1] = test: Growth inhibition of human T-lymphoblastic leukemia cell line CCRF-CEM in culture; type: functional; conditions: read-out: ED50 (the source's name)
Dihydrofolate reductase [2] = molecular target: Dihydrofolate reductase (Escherichia coli, UniProt P0ABQ4)
Description: Inhibitory concentration against isolated Escherichia coli Dihydrofolate reductase

Dihydrofolate reductase [3] = molecular target: Dihydrofolate reductase (Lactobacillus casei, UniProt P00381); test: Inhibitory concentration against isolated Lactobacillus casei Dihydrofolate reductase; design: species or system Lacticaseibacillus casei
Dihydrofolate reductase [4] = molecular target: T1, Dihydrofolate reductase (Homo sapiens, UniProt P00374); test: Inhibitory concentration against isolated human Dihydrofolate reductase
T1 sequence (P00374 whole entry): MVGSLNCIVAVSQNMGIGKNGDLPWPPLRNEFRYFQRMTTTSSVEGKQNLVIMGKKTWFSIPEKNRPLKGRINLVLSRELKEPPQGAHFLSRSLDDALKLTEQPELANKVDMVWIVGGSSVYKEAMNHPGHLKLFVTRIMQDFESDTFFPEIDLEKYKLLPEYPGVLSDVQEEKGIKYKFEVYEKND

Dihydrofolate reductase [5] = molecular target: T2, Dihydrofolate reductase (Pneumocystis carinii, UniProt P16184)
T2 sequence (P16184 whole entry): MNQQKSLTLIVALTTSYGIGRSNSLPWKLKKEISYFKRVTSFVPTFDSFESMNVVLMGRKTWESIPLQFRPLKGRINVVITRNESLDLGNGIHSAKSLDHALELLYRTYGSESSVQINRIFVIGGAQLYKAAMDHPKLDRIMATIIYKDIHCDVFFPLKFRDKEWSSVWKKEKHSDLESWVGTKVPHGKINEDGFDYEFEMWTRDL
Description: Inhibitory concentration against isolated Pneumocystis carinii DHFR (Dihydrofolate reductase)

[6] = molecular target: T3, Bifunctional dihydrofolate reductase-thymidylate synthase (Toxoplasma gondii, UniProt Q07422)
T3 sequence (Q07422 whole entry): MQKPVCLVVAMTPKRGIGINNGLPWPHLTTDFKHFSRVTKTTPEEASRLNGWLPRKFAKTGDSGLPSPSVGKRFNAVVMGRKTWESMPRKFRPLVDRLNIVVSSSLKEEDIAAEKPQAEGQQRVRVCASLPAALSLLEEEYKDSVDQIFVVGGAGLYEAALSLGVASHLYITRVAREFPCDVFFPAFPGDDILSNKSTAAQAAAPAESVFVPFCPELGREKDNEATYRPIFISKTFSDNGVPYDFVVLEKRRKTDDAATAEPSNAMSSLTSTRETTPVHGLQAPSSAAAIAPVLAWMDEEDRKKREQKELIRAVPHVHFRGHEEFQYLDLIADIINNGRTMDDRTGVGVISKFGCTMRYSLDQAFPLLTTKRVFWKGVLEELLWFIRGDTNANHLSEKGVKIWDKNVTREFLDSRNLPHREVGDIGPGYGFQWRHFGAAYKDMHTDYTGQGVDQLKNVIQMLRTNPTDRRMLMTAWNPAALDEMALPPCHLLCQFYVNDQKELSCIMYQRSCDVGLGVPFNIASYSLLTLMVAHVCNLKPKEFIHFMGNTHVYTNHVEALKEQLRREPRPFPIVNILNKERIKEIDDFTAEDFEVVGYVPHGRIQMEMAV
Description: Inhibitory concentration against isolated Toxoplasma gondii DHFR (dihydrofolate reductase)

[7] = molecular target: Trifunctional purine biosynthetic protein adenosine-3 (Homo sapiens, UniProt P22102); test: Inhibition against GAR transformylase; In active
[8] = molecular target: T4, Bifunctional purine biosynthesis protein ATIC (Homo sapiens, UniProt P31939); test: Inhibition against […]-4-carboxamide ribonucleotide formyltransferase (AICAR formyltransferase); inactive
FaDu = test: Growth inhibition of human squamous cell carcinoma FaDu in culture; type: functional; conditions: read-out: ED50 (the source's name)
Thymidylate synthase [9] = molecular target: T5, Thymidylate synthase (Homo sapiens, UniProt P04818); test: Inhibitory concentration against human Thymidylate synthase(TS)
Thymidylate synthase [10] = molecular target: T6, Thymidylate synthase (Lactobacillus casei, UniProt P00469); test: Inhibitory concentration against isolated Lactobacillus casei Thymidylate synthase; design: species or system Lacticaseibacillus casei
T6 sequence (P00469 whole entry): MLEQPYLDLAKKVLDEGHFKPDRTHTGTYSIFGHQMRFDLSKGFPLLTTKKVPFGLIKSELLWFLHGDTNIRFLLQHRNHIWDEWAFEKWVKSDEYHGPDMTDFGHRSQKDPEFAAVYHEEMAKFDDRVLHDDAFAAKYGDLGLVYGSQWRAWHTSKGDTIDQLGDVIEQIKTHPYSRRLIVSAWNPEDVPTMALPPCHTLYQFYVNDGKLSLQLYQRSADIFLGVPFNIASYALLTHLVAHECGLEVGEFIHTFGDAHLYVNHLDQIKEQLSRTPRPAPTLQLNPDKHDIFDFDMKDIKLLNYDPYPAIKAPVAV

Thymidylate synthase [11] = molecular target: Thymidylate synthase (Rattus norvegicus, UniProt P45352); test: Inhibitory concentration against isolated rat thymidylate synthase
Thymidylate synthase [12] = molecular target: T5, Thymidylate synthase; test: Inhibitory concentration against isolated Thymidylate synthase
Homo sapiens [13] = species on record: Homo sapiens; test: The maximum velocity at which substrate concentration is stabilised is determined for compound as substrate for recombinant human folyl-poly-glutamate synthase (FPGS); type: ADME; conditions: in vivo
Homo sapiens [14] = species on record: Homo sapiens; test: Ratio between Vmax and Km for compound as substrate for recombinant human folyl-poly-glutamate synthase (FPGS); type: ADME; conditions: in vivo
carcinoma cell line [15] = test: Tested for their inhibition of growth of CCRF-CEM human leukemia on carcinoma cell lines.; type: functional, cell-based
Thymidylate synthase [16] = molecular target: Thymidylate synthase (Escherichia coli, UniProt C3SWJ7); test: Inhibitory concentration against isolated Escherichia coli Thymidylate synthase
CCRF-CEM [17] = test: Concentration required to inhibit growth against CCRF-CEM cell; type: functional, cell-based; conditions: Homo sapiens
carcinoma cell line [18] = test: Tested for their inhibition of growth of FaDu head on carcinoma cell lines.; type: functional, cell-based; conditions: Homo sapiens
CCRF-CEM [19] = test: Tested for their growth inhibition of CCRF-CEM human leukemia subline resistant as a result of decrease polyglutamylation.; type: functional, cell-based
SF-539 = test: Cytotoxicity was tested against CNS cancer SF-539 tumor cell lines.; type: functional; conditions: Homo sapiens
HCC 2998 = test: Cytotoxicity against colon cancer HCC2998 tumor cell lines.; type: functional; conditions: Homo sapiens
ACHN = test: Cytotoxicity was tested against renal cancer ACHN tumor cell lines.; type: functional; conditions: Homo sapiens
CCRF-CEM [20] = test: Tested for their growth inhibition of CCRF-CEM human leukemia subline resistant as a result of decrease in uptake.; type: functional, cell-based
MOLT-4 = test: Cytotoxicity against leukemia MOLT-4 tumor cell lines.; type: functional; conditions: Homo sapiens
CCRF-CEM [21] = test: Tested for their growth inhibition of CCRF-CEM human leukemia subline resistant as a result of increase in wild type DHFR protein and activity.; type: functional, cell-based
NCI-H460 = test: Cytotoxicity against non small cell lung cancer NCI-H460 tumor cell lines.; type: functional; conditions: Homo sapiens
MCF7 = test: Cytotoxicity was tested against breast cancer MCF-7 tumor cell lines.; type: functional; conditions: Homo sapiens
HCT-116 = test: Cytotoxicity was tested against colon cancer HCT116 tumor cell lines.; type: functional; conditions: Homo sapiens
NCI-H226 = test: Cytotoxicity against non small cell lung cancer NCI-H226 tumor cell lines.; type: functional; conditions: Homo sapiens
[22] = molecular target: T4, Bifunctional purine biosynthesis protein ATIC; test: Inhibition against […]-4-carboxamide ribonucleotide formyltransferase (AICAR formyltransferase); In active
Thymidylate synthase [23] = molecular target: T5, Thymidylate synthase; test: Inhibitory concentration against human TS
[24] = substrate: Cc1nc(N)nc2c1c(CCc1ccc(C(=O)N[C@@H](CCC(=O)O)C(=O)O)cc1)cn2Cc1ccccc1; test: (§1) Activity as substrate for recombinant human folyl-poly-glutamate synthase (FPGS).
[25] = substrate: Cc1nc(N)nc2[nH]cc(CCc3ccc(C(=O)N[C@@H](CCC(=O)O)C(=O)O)cc3)c12; test: as §1

Sequence of Dihydrofolate reductase (Lactobacillus casei, UniProt P00381) (P00381 whole entry): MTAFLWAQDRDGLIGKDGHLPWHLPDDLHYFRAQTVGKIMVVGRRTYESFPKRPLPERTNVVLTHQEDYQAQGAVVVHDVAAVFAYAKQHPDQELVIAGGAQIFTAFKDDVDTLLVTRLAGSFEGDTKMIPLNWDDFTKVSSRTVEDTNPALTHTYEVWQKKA
T5 sequence (P04818 whole entry): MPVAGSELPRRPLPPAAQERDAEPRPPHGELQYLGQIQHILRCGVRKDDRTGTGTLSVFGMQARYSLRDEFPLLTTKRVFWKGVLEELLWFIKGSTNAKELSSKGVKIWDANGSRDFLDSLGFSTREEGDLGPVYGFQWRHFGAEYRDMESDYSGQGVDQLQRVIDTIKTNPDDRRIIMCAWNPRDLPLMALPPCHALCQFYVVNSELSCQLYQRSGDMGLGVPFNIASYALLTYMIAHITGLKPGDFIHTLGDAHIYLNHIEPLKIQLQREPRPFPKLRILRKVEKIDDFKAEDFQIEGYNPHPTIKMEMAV
Sequence of Thymidylate synthase (Rattus norvegicus, UniProt P45352) (P45352 whole entry): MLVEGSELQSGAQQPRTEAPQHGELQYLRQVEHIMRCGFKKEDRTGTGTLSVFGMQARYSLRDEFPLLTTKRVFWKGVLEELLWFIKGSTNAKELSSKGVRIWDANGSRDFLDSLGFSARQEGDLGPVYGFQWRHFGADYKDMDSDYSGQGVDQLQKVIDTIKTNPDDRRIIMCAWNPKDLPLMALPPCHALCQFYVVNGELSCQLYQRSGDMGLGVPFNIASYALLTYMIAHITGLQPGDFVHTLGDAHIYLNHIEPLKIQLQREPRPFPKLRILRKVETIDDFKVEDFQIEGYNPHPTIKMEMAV
T4 sequence (P31939 whole entry): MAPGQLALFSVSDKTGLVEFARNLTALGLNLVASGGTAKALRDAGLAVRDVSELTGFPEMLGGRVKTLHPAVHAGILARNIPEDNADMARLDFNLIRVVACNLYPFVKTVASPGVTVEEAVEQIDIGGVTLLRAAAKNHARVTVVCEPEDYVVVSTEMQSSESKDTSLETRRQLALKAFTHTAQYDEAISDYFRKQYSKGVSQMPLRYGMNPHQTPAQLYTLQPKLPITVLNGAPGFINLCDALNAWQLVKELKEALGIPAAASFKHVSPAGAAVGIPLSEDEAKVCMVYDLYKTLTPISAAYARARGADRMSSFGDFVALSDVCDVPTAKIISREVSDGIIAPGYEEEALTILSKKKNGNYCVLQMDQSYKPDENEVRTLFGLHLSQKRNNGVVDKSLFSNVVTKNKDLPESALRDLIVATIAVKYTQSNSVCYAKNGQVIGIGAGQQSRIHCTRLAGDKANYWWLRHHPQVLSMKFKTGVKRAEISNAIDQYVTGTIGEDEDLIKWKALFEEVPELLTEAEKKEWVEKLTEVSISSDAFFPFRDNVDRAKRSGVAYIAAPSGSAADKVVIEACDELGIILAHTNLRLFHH
Sequence of Thymidylate synthase (Escherichia coli, UniProt C3SWJ7) (C3SWJ7 whole entry): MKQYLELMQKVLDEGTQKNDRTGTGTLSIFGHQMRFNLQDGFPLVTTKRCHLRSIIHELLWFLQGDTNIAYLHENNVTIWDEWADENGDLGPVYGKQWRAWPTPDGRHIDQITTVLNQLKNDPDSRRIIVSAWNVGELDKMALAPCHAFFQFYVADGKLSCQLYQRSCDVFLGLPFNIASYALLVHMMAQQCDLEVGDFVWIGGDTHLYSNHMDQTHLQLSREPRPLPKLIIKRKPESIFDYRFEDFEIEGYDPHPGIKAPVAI
Sequence of Trifunctional purine biosynthetic protein adenosine-3 (P22102 whole entry): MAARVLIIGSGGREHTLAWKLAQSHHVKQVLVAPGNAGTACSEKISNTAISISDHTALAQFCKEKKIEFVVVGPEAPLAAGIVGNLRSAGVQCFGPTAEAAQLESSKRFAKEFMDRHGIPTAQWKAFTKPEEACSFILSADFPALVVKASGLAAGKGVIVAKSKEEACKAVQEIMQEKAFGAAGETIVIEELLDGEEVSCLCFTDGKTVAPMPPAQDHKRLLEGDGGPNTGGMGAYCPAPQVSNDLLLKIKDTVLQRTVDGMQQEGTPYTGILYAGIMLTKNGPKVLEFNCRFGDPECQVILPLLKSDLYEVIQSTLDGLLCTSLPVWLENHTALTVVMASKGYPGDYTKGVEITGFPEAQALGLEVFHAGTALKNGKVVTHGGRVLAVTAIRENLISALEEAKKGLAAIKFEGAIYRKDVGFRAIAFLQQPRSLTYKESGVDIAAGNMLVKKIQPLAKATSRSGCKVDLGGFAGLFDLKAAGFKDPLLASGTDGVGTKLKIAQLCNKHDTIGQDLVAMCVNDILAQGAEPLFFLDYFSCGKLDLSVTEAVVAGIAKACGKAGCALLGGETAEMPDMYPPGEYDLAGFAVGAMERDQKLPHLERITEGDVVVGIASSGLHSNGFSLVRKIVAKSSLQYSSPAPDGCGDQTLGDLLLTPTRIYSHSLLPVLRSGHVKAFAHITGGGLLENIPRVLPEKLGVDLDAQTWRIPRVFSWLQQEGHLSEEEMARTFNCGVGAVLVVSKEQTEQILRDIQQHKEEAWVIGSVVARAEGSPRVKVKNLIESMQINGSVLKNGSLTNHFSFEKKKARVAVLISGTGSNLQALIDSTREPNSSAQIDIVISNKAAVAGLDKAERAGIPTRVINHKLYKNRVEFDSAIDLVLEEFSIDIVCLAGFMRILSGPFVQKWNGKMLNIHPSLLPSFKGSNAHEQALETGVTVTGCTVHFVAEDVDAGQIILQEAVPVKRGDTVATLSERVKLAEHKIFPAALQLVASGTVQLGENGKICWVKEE
Sequence of Dihydrofolate reductase (Escherichia coli, UniProt P0ABQ4) (P0ABQ4 whole entry): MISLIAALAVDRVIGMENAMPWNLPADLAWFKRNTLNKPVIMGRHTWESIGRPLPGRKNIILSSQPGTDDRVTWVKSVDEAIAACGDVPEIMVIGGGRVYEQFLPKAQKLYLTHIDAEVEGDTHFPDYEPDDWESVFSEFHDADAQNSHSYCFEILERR

Molecule: Nc1nc(N)c2c(CCc3ccc(C(=O)N[C@@H](CCC(=O)O)C(=O)O)cc3)coc2n1
- EC50 (CCRF-CEM [1]): 250 nM

Molecule: Cc1cn([C@@H]2O[C@H](COP(=O)(O)O)[C@@H](O)[C@H]2O)c(=O)[nH]c1=O
- IC50 (Dihydrofolate reductase [2]): 20 nM
- IC50 (Dihydrofolate reductase [3]): 350 nM
- IC50 (Dihydrofolate reductase [4]): 340000 nM
- IC50 (Dihydrofolate reductase [5]): 15000 nM
- IC50 [6]: 3400 nM

Molecule: CN(Cc1coc2nc(N)nc(N)c12)c1ccc(C(=O)N[C@@H](CCC(=O)O)C(=O)O)cc1 [FURO[2,3D]PYRIMIDINE ANTIFOLATE]
- IC50 [7]: Not Active
- IC50 [8]: Not Active
- EC50 (CCRF-CEM [1]): 47 nM
- EC50 (FaDu): 55 nM
- IC50 (Thymidylate synthase [9]): > 200000 nM

Molecule: Nc1nc2[nH]cc(CCc3ccc(C(=O)N[C@@H](CCC(=O)O)C(=O)O)cc3)c2c(=O)[nH]1 [PEMETREXED]
- IC50 (Thymidylate synthase [10]): 20000 nM
- IC50 (Thymidylate synthase [11]): 20000 nM
- IC50 (Thymidylate synthase [12]): 110000 nM

Molecule: Nc1nc(N)c2nc(CNc3ccc(C(=O)N[C@@H](CCC(=O)O)C(=O)O)cc3)cnc2n1 [AMINOPTERIN]
- Vmax (Homo sapiens [13]): 1
- Ratio (Homo sapiens [14]): 0.21

Molecule: Cc1nc2ccc(CN(C)c3ccc(C(=O)N[C@@H](CCC(=O)O)C(=O)O)s3)cc2c(=O)[nH]1 [RALTITREXED]
- IC50 (Thymidylate synthase [10]): 8000 nM
- IC50 (Thymidylate synthase [11]): 900 nM

Molecule: Cc1nc(N)nc2c1c(CCc1ccc(C(=O)N[C@@H](CCC(=O)O)C(=O)O)cc1)cn2Cc1ccccc1
- IC50 (Dihydrofolate reductase [2]): > 19000 nM
- IC50 (Thymidylate synthase [10]): 310 nM
- Vmax (Homo sapiens [13]): 0.65
- IC50 (Dihydrofolate reductase [3]): 19000 nM
- IC50 (Dihydrofolate reductase [4]): > 19000 nM
- IC50 (carcinoma cell line [15]): > 10000 nM
- IC50 (Dihydrofolate reductase [5]): > 19000 nM
- Ratio (Homo sapiens [14]): 0.02
- IC50 (Thymidylate synthase [16]): 16000 nM
- IC50 (Thymidylate synthase [11]): > 16000 nM
- IC50 (Thymidylate synthase [12]): > 16000 nM
- IC50 (CCRF-CEM [17]): > 10000 nM
- IC50 [6]: > 19000 nM
- IC50 (carcinoma cell line [18]): > 20000 nM
- IC50 (CCRF-CEM [19]): > 20000 nM

Molecule: Cc1nc(N)nc2[nH]cc(CCc3ccc(C(=O)N[C@@H](CCC(=O)O)C(=O)O)cc3)c12
- GI50 (SF-539): < 10 nM
- GI50 (HCC 2998): < 10 nM
- IC50 (Thymidylate synthase [10]): 9000 nM
- Vmax (Homo sapiens [13]): 0.17
- GI50 (ACHN): < 10 nM
- EC50 (CCRF-CEM [20]): 575 nM
- GI50 (MOLT-4): < 10 nM
- IC50 (Dihydrofolate reductase [3]): 24 nM
- IC50 (Dihydrofolate reductase [4]): 800 nM
- EC50 (carcinoma cell line [15]): 12.5 nM
- IC50 (Dihydrofolate reductase [5]): 1200 nM
- IC50 (Thymidylate synthase [16]): 2000 nM
- EC50 (CCRF-CEM [21]): 158 nM
- GI50 (NCI-H460): < 10 nM
- GI50 (MCF7): 169 nM
- GI50 (HCT-116): 7110 nM
- GI50 (NCI-H226): 61.4 nM
- IC50 (Thymidylate synthase [11]): 2000 nM
- IC50 (Thymidylate synthase [12]): 1000 nM
- EC50 (CCRF-CEM [17]): 12.5 nM
- IC50 [6]: 1200 nM
- EC50 (carcinoma cell line [18]): 7 nM
- EC50 (CCRF-CEM [19]): 18.5 nM

Molecule: Nc1nc(N)c2c(CNc3ccc(C(=O)N[C@@H](CCC(=O)O)C(=O)O)cc3)coc2n1
- IC50 [7]: Not Active
- IC50 [22]: Not Active
- IC50 (Thymidylate synthase [23]): > 200000 nM

Molecule: Nc1nc(N)c2c(CNCc3ccc(C(=O)N[C@@H](CCC(=O)O)C(=O)O)cc3)coc2n1
- EC50 (CCRF-CEM [1]): 30500 nM

B1: Folylpolyglutamate synthase, mitochondrial (Homo sapiens), Q05932 (protein)
chain: MSRARSHLRAALFLAAASARGITTQVAARRGLSAWPVPQEPSMEYQDAVRMLNTLQTNAGYLEQVKRQRGDPQTQLEAMELYLARSGLQVEDLDRLNIIHVTGTKGKGSTCAFTECILRSYGLKTGFFSSPHLVQVRERIRINGQPISPELFTKYFWRLYHRLEETKDGSCVSMPPYFRFLTLMAFHVFLQEKVDLAVVEVGIGGAYDCTNIIRKPVVCGVSSLGIDHTSLLGDTVEKIAWQKGGIFKQGVPAFTVLQPEGPLAVLRDRAQQISCPLYLCPMLEALEEGGPPLTLGLEGEHQRSNAALALQLAHCWLQRQDRHGAGEPKASRPGLLWQLPLAPVFQPTSHMRLGLRNTEWPGRTQVLRRGPLTWYLDGAHTASSAQACVRWFRQALQGRERPSGGPEVRVLLFNATGDRDPAALLKLLQPCQFDYAVFCPNLTEVSSTGNADQQNFTVTLDQVLLRCLEHQQHWNHLDEEQASPDLWSAPSPEPGGSASLLLAPHPPHTCSASSLVFSCISHALQWISQGRDPIFQPPSPPKGLLTHPVAHSGASILREAAAIHVLVTGSLHLVGGVLKLLEPALSQ
- Km [24]: 37 µM
- Km [25]: < 1 µM

— ChEMBL document CHEMBL1133086, “Design, synthesis, and X-ray crystal structure of a potent dual inhibitor of thymidylate synthase and dihydrofolate reductase as an antitumor agent” (J Med Chem, 2000)
